US10087229B2, “Peptide compound” (TAKEDA PHARMACEUTICAL COMPANY LIMITED, priority 2013, dated 2018)
Square brackets hold non-standard residues; d marks the D form. Peptide text beside a SMILES is read from it. * marks the point of attachment. Tyr(Nα-amidino) = N=C(N)N[C@@H](Cc1ccc(O)cc1)C(=O)*; αMeF = C[C@](N)(Cc1ccccc1)C(=O)O; Cha = N[C@@H](CC1CCCCC1)C(=O)O; Aib = CC(C)(N)C(=O)O

How the values were obtained:
male C57BL/6J mouse = experiment: 2-days continuous subcutaneous administration test (feeding suppressive activity); format: in vivo; details: 10 nmol/kg/day, subcutaneous Alzet pump, 2-days cumulative food consumption, control (solvent alone) = 0%
Description: 2-Days Continuous Subcutaneous Administration Test
The feeding suppressive activity of a test compound was examined by the method described below.
The test compound was dissolved in a solvent (50% DMSO) so that sustained release would occur at 10 nmol/kg/day, and the solution was filled in the Alzet Pump (DURECT Corporation, model: 1003D). The pump thus filled with the solution to be administered was immersed in physiological saline for priming, and then used. The pump was embedded by the following method. Each male C57BL/6J mouse at 8-9 weeks of age (20-26° C., allowed to take food and water ad libitum; 12-hour bright-12-hour dark cycle) was anesthetized; the skin in the upper back thereof was incised, and the above-mentioned pump was embedded subcutaneously; the incision was sutured. After weighing, this mouse was returned to the rearing cage (reared alone), and given previously weighed food; food consumption as of 2 days after the start of administration was measured. The food consumption was calculated by subtracting the amount of remaining food from the weight of the food given on the day of the start of administration. When the food consumption of a control group receiving administration of the solvent alone was regarded as a suppression rate of 0%, the feeding suppressive activity of each test compound was evaluated on the basis of 2-days cumulative food consumption after the start of administration. The food intake suppression rate (%) of the test compound was defined as (Food consumption of the control group−Food consumption of the test compound-administered group)/Food consumption of the control group×100.

[1] = tested on: Diet-induced obesity (DIO) male C57BL/6J mice; experiment: 2-weeks continuous subcutaneous administration study in DIO mice (anti-obesity activity); format: in vivo, mouse; details: 1 nmol/kg/day, subcutaneous Alzet pump, 2 weeks after start of administration; rate of weight loss, control group regarded as 0%
Description: 2-Weeks Continuous Subcutaneous Administration Study in DIO Mice
The anti-obesity activity of a test compound was examined by the method described below.
Diet-induced obesity (DIO) mice were prepared by feeding male C57BL/6J mice with high-fat diet (D12451: Research Diets, Inc.). The test compound was dissolved in a solvent (50% DMSO) so that sustained release would occur at 1 nmol/kg/day, and the solution was filled in the Alzet Pump (DURECT Corporation, model: 1002). The pump thus filled with the solution to be administered was immersed in physiological saline for priming, and then used. The pump was embedded by the following method. Each male DIO-C57BL/6J mouse at 35-37 weeks of age (20-26° C., allowed to take food and water ad libitum; 12-hour bright-12-hour dark cycle) was anesthetized; the skin in the upper back thereof was incised, and the above-mentioned pump was embedded subcutaneously; the incision was sutured. After weighing, this mouse was returned to the rearing cage (reared alone), and given previously weighed food; the body weight was measured every 1 to 3 days after the start of administration. The anti-obesity activity of each test compound was evaluated on the basis of the rate of weight loss 2 weeks after the start of administration, with the rate of weight loss in a control group receiving administration of the solvent alone regarded as 0%.

Row | Compound | Food intake suppression (%) (male C57BL/6J mouse) | Change in body weight [1]
1 | CC(C)C[C@H](NC(=O)[C@H](CC(C)C)NC(=O)[C@H](Cc1c[nH]c2ccccc12)NC(=O)[C@H](CCCCN)NC(=O)[C@@H](NC(=O)[C@H](Cc1ccccc1)NC(=O)[C@H](CCC(=O)O)NC(=O)[C@H](C)NC(=O)[C@H](CCC(N)=O)NC(=O)[C@H](C)NC(=O)[C@H](CCC(N)=O)NC(=O)[C@H](CCCCN)NC(=O)[C@H](CC(=O)O)NC(=O)[C@H](CC(C)C)NC(=O)[C@H](Cc1ccc(O)cc1)NC(=O)[C@H](CCCCN)NC(=O)C(C)(C)NC(=O)[C@H](Cc1ccc(O)cc1)NC(=O)[C@H](CC(=O)O)NC(=O)[C@H](CO)NC(=O)[C@@H](NC(=O)[C@](C)(Cc1ccccc1)NC(=O)[C@@H](NC(=O)CNC(=O)[C@H](CCC(=O)O)NC(=O)C(C)(C)NC(=O)[C@@H](N)Cc1ccc(O)cc1)[C@@H](C)O)[C@@H](C)O)C(C)C)C(=O)N[C@@H](CCCCN)C(=O)NCC(=O)NCC(=O)N1CCC[C@H]1C(=O)N[C@@H](CO)C(=O)N[C@@H](CO)C(=O)NCC(=O)N[C@@H](C)C(=O)N1CCC[C@H]1C(=O)N1CCC[C@H]1C(=O)N1CCC[C@H]1C(=O)N[C@@H](CO)C(=O)N[C@@H](CCCCN)C(N)=O [Example 24] (H-Y[Aib]EGT[αMeF]TSDY[Aib]KYLDKQAQAEFVKWLLKGGPSSGAPPPSK-NH2) | 54.18 | −11.1
2 | CC(C)C[C@H](NC(=O)[C@H](CC(C)C)NC(=O)[C@H](Cc1c[nH]c2ccccc12)NC(=O)[C@H](CCCCN)NC(=O)[C@@H](NC(=O)[C@H](Cc1ccccc1)NC(=O)[C@H](CCC(=O)O)NC(=O)[C@H](CCC(N)=O)NC(=O)[C@H](CCC(N)=O)NC(=O)[C@H](C)NC(=O)[C@H](CCC(N)=O)NC(=O)[C@H](CCCCN)NC(=O)[C@H](CC(=O)O)NC(=O)[C@H](CC(C)C)NC(=O)[C@H](Cc1ccc(O)cc1)NC(=O)[C@H](CCCCN)NC(=O)C(C)(C)NC(=O)[C@H](Cc1ccc(O)cc1)NC(=O)[C@H](CC(=O)O)NC(=O)[C@H](CO)NC(=O)[C@@H](NC(=O)[C@](C)(Cc1ccccc1)NC(=O)[C@@H](NC(=O)CNC(=O)[C@H](CCC(=O)O)NC(=O)C(C)(C)NC(=O)[C@@H](N)Cc1ccc(O)cc1)[C@@H](C)O)[C@@H](C)O)C(C)C)C(=O)N[C@@H](CCCCN)C(=O)NCC(=O)NCC(=O)N1CCC[C@H]1C(=O)N[C@@H](CO)C(=O)N[C@@H](CO)C(=O)NCC(=O)N[C@@H](C)C(=O)N1CCC[C@H]1C(=O)N1CCC[C@H]1C(=O)N1CCC[C@H]1C(=O)N[C@@H](CO)C(N)=O [Example 26] (H-Y[Aib]EGT[αMeF]TSDY[Aib]KYLDKQAQQEFVKWLLKGGPSSGAPPPS-NH2) | 53.06 | −16.2
3 | CC[C@H](C)[C@H](NC(=O)C(C)(C)NC(=O)[C@H](Cc1ccc(O)cc1)NC(=O)[C@H](CC(=O)O)NC(=O)[C@H](CO)NC(=O)[C@@H](NC(=O)[C@](C)(Cc1ccccc1)NC(=O)[C@@H](NC(=O)CNC(=O)[C@H](CCC(=O)O)NC(=O)C(C)(C)NC(=O)[C@@H](N)Cc1ccc(O)cc1)[C@@H](C)O)[C@@H](C)O)C(=O)N[C@@H](CC1CCCCC1)C(=O)N[C@@H](CC(C)C)C(=O)N[C@@H](CC(=O)O)C(=O)N[C@@H](CCCCN)C(=O)N[C@@H](CCC(N)=O)C(=O)N[C@@H](C)C(=O)N[C@@H](CCC(N)=O)C(=O)N[C@@H](C)C(=O)N[C@@H](CCC(=O)O)C(=O)N[C@@H](Cc1ccccc1)C(=O)N[C@H](C(=O)N[C@@H](CCCCN)C(=O)N[C@@H](Cc1c[nH]c2ccccc12)C(=O)N[C@@H](CC(C)C)C(=O)N[C@@H](CC(C)C)C(=O)N[C@@H](CCCCN)C(=O)NCC(=O)NCC(=O)N1CCC[C@H]1C(=O)N[C@@H](CO)C(=O)N[C@@H](CO)C(=O)NCC(=O)N[C@@H](C)C(=O)N1CCC[C@H]1C(=O)N1CCC[C@H]1C(=O)N1CCC[C@H]1C(=O)N[C@@H](CO)C(=O)N[C@@H](CCCCN)C(N)=O)C(C)C [Example 14] (H-Y[Aib]EGT[αMeF]TSDY[Aib]I[Cha]LDKQAQAEFVKWLLKGGPSSGAPPPSK-NH2) | 47.47 | 
4 | CC[C@H](C)[C@H](NC(=O)[C@H](C)NC(=O)[C@H](Cc1ccc(O)cc1)NC(=O)[C@H](CC(=O)O)NC(=O)[C@H](CO)NC(=O)[C@@H](NC(=O)[C@](C)(Cc1ccccc1)NC(=O)[C@@H](NC(=O)CNC(=O)[C@H](CCC(=O)O)NC(=O)C(C)(C)NC(=O)[C@@H](N)Cc1ccc(O)cc1)[C@@H](C)O)[C@@H](C)O)C(=O)NC(C)(C)C(=O)N[C@@H](CC(C)C)C(=O)N[C@@H](CC(=O)O)C(=O)N[C@@H](CCCCN)C(=O)N[C@@H](CCC(N)=O)C(=O)N[C@@H](C)C(=O)N[C@@H](CCC(N)=O)C(=O)N[C@@H](CO)C(=O)N[C@@H](CCC(=O)O)C(=O)N[C@@H](Cc1ccccc1)C(=O)N[C@H](C(=O)N[C@@H](CCCCN)C(=O)N[C@@H](Cc1c[nH]c2ccccc12)C(=O)N[C@@H](CC(C)C)C(=O)N[C@@H](CC(C)C)C(=O)N[C@@H](CCCCN)C(=O)NCC(=O)NCC(=O)N1CCC[C@H]1C(=O)N[C@@H](CO)C(=O)N[C@@H](CO)C(=O)NCC(=O)N[C@@H](C)C(=O)N1CCC[C@H]1C(=O)N1CCC[C@H]1C(=O)N1CCC[C@H]1C(=O)N[C@@H](CO)C(=O)N[C@@H](CCCCN)C(N)=O)C(C)C [Example 3] (H-Y[Aib]EGT[αMeF]TSDYAI[Aib]LDKQAQSEFVKWLLKGGPSSGAPPPSK-NH2) | 46.49 | 
5 | CC[C@H](C)[C@H](NC(=O)C(C)(C)NC(=O)[C@H](Cc1ccc(O)cc1)NC(=O)[C@H](CC(=O)O)NC(=O)[C@H](CO)NC(=O)[C@@H](NC(=O)[C@](C)(Cc1ccccc1)NC(=O)[C@@H](NC(=O)CNC(=O)[C@H](CCC(=O)O)NC(=O)C(C)(C)NC(=O)[C@H](Cc1ccc(O)cc1)NC(=N)N)[C@@H](C)O)[C@@H](C)O)C(=O)NC(C)(C)C(=O)N[C@@H](CC(C)C)C(=O)N[C@@H](CC(=O)O)C(=O)N[C@@H](CCCCN)C(=O)N[C@@H](CCC(N)=O)C(=O)N[C@@H](C)C(=O)N[C@@H](CCC(N)=O)C(=O)N[C@@H](C)C(=O)N[C@@H](CCC(=O)O)C(=O)N[C@@H](Cc1ccccc1)C(=O)N[C@H](C(=O)N[C@@H](CCCCN)C(=O)N[C@@H](Cc1c[nH]c2ccccc12)C(=O)N[C@@H](CC(C)C)C(=O)N[C@@H](CC(C)C)C(=O)N[C@@H](CCCCN)C(=O)NCC(=O)NCC(=O)N1CCC[C@H]1C(=O)N[C@@H](CO)C(=O)N[C@@H](CO)C(=O)NCC(=O)N[C@@H](C)C(=O)N1CCC[C@H]1C(=O)N1CCC[C@H]1C(=O)N1CCC[C@H]1C(=O)N[C@@H](CO)C(=O)N[C@@H](CCCCN)C(N)=O)C(C)C [Example 22] ({Tyr(Nα-amidino)}-[Aib]EGT[αMeF]TSDY[Aib]I[Aib]LDKQAQAEFVKWLLKGGPSSGAPPPSK-NH2) | 35.51 | 
6 | CC[C@H](C)[C@H](NC(=O)[C@H](C)NC(=O)[C@H](Cc1ccc(O)cc1)NC(=O)[C@H](CC(=O)O)NC(=O)[C@H](CO)NC(=O)[C@@H](NC(=O)[C@](C)(Cc1ccccc1)NC(=O)[C@@H](NC(=O)CNC(=O)[C@H](CCC(=O)O)NC(=O)C(C)(C)NC(=O)[C@@H](N)Cc1ccc(O)cc1)[C@@H](C)O)[C@@H](C)O)C(=O)NC(C)(C)C(=O)N[C@@H](CC(C)C)C(=O)N[C@@H](CC(=O)O)C(=O)N[C@@H](CCCCN)C(=O)N[C@@H](CCC(N)=O)C(=O)N[C@@H](C)C(=O)N[C@@H](CCC(N)=O)C(=O)N[C@@H](C)C(=O)N[C@@H](CCC(=O)O)C(=O)N[C@@H](Cc1ccccc1)C(=O)N[C@H](C(=O)N[C@@H](CCCCN)C(=O)N[C@@H](Cc1c[nH]c2ccccc12)C(=O)N[C@@H](CC(C)C)C(=O)N[C@@H](CC(C)C)C(=O)N[C@@H](CCCCN)C(=O)NCC(=O)NCC(=O)N1CCC[C@H]1C(=O)N[C@@H](CO)C(=O)N[C@@H](CO)C(=O)NCC(=O)N[C@@H](C)C(=O)N1CCC[C@H]1C(=O)N1CCC[C@H]1C(=O)N1CCC[C@H]1C(=O)N[C@@H](CO)C(=O)N[C@@H](CCCCN)C(N)=O)C(C)C [Example 1] (H-Y[Aib]EGT[αMeF]TSDYAI[Aib]LDKQAQAEFVKWLLKGGPSSGAPPPSK-NH2) | 42.68 | 
